Test results published in US20230323420A1, “PERFUSION MEDIUM” (Boehringer Ingelheim International GmbH, priority 2017, published 2023).

Key:
CHO cultures = settings: cited from earlier work
[1] = tested on: CHO-DG44 cells expressing a recombinant monoclonal IgG1 antibody; assay: High density perfusion culture in 2 L bioreactors, 1.6 mM ferric citrate (Example 2); type: cell-based, Chinese hamster; settings: for decrease of cell bleed rate: 1.6 mM ferric citrate background media, over 4 days (FIG. 5B)
Method: A high density perfusion culture of CHO-DG44 cells expressing a recombinant monoclonal IgG1 antibody was treated with high iron (Fe) and vitamin A (retinyl acetate) to assess the effect on cell proliferation, and by extension, the cell bleed. A bench-scale experiment was performed in three 2 L perfusion bioreactors with 0.2 μm PES hollow fibers (Spectrum Labs) on alternating tangential flow (ATF) at 0.8 L/min flow rate. Bioreactors were maintained at: 37° C., 60% dissolved oxygen, 348 RPM agitation, and a target pH of 7.0 (pH target was not always achieved). A CHO DG44 cell line expressing a monoclonal antibody was inoculated into the bioreactors at approximately 1e6 cells/mL in proprietary chemically defined, serum-free inoculation medium at a 1:4 dilution of conditioned to fresh inoculation media. This culture was grown in batch mode (no flow in or out) for 2 days, at which time perfusion was started with BI's perfusion media (manufactured by SAFC). […] During the growth phase (d0-d10 post-inoculation) there was no cell bleed, allowing the viable cell density (VCD) to reach desired level. On day 8, ferric citrate (Sigma-Aldrich; CAS 3522-50-7) was added to the perfusion medium at a concentration of 1.6 mM, targeting a pH of 6.9. Once optimal cell density was reached on day 10, cell bleed was initiated to maintain constant VCD (steady state). The calculation governing the cell bleed rate was based on maintaining the Incyte biomass capacitance probe value (Hamilton) which corresponded to the target VCD.
After steady state was established for several days, retinyl acetate (Sigma-Aldrich, CAS 127-47-9) was introduced to two of the bioreactors, with one bioreactor acting as control with no retinyl acetate (Table 4). Retinyl acetate was dissolved in absolute ethanol and sterile-filtered with a 0.2 μm filter to make a sterile stock solution of 152 mM before addition to media bags for final concentrations of 50 μM, 100 μM, 150 μM, or 200 μM retinyl acetate (in four respective bags). Each treatment bioreactor then received retinyl acetate at a first concentration between day 15 and 20 (50 μM or 100 μM) and at a second concentration between days 20-24 (150 or 200 μM) as shown in Table 4. On day 15 and 20 for each treatment, the bag of new treatment media was attached to the media inlet line of the bioreactors. […]
Samples were taken near-daily for: VCD and viability (Vi-Cell, Beckman-Coulter), osmolality (Advanced Instrument Inc), pH, CO2, and O2 (RapidLab 1240 BGA, Siemens), and metabolite readings (Cedex BioHT, Roche). […]

[2] = tested on: Chinese hamster ovary (CHO) DG44 cells expressing a recombinant monoclonal IgG1 antibody; assay: Deep well plate model of perfusion (small scale culture): viable cell density, viability, titer; type: cell-based
Method: Axygen 24 well pre-sterilized deep-well plates (Neta Scientific Inc, Hainesport, NJ) were used as a scale-down model of perfusion. A starting cell density of 20×10^6 cells/mL (3 mL per well) was targeted to simulate the high cell density growth phase of perfusion. Chinese hamster ovary (CHO) DG44 cells expressing a recombinant monoclonal IgG1 antibody were grown in proprietary chemically defined, serum-free perfusion media at 33° C. with 5% CO2, 80% humidity, and 200 rpm shaking speed in an incubator with a 5.0 cm orbit diameter for 4 or 8 days. A 0.1 mL sample was taken for cell count daily prior to media exchange. Medium exchanges were performed daily by centrifuging the plate at 1200 rpm for 5 minutes, removing 2 mL supernatant, and resuspending cells in 2.1 mL fresh, pre-warmed media at 37° C. (in early days, this equates to a ⅔ volume exchange, whereas in later days the cell pellet grows such that 2 mL is nearly the entire liquid volume, equating to a 1 VVD exchange). Supernatant was saved to perform process analytics.
Retinyl acetate was tested in concentrations ranging from 5 μM to 600 μM in proprietary chemically defined, serum-free perfusion medium with 230 μM or 3.1 mM ferric citrate. A 152 mM stock solution of retinyl acetate was prepared by dissolving 50 mg/mL retinyl acetate powder to prepare a 152 mM stock (Sigma-Aldrich; CAS 127-47-9) in absolute ethanol, or 75 mg/mL retinyl acetate for 228 mM stock, for each experimental run; after thorough mixing, the solutions were sterile-filtered with 0.22 μm Steriflips (EMD Millipore). This stock was diluted down further with perfusion medium to provide a working stock. Media aliquot concentrations were 30% higher than the targeted final concentration in each treatment to compensate for residual media left in the well and cell pellet volume. The media were prepared in proprietary chemically defined, serum-free media (either 230 μM or 3.1 mM Fe background) as shown in Table 2. Control condition had no retinyl acetate supplement; ethanol control added the solvent with no retinyl acetate at the level equivalent to the greatest amount for each experiment. These media aliquots were used in the daily media exchanges as described above.
Viability and viable cell density were measured by Vi-CELL Cell Counter using the Trypan blue dye exclusion method (Beckman Coulter Life Sciences, Indianapolis, IN). Titer, metabolites, and lactate dehydrogenase (LDH) levels were measured using a Cedex BioHT (Roche Diagnostics GmbH, Mannheim, Germany). These titer measurements had been previously verified to be in agreement with in house HPLC Protein A methods. Osmolality was measured with a 2020 Multi-Sample Micro Osmometer (Advanced Instruments, Inc, Norwood, MA) based on freezing point depression.
A small scale cell culture using CHO DG44 cells expressing a recombinant monoclonal IgG1 antibody was treated with ferric citrate and retinyl acetate at different concentrations to assess the effect on cell viability, essentially as described for the small scale culture in Example 1.

CHO-DG44 cells = assay: Cell cycle analysis of perfusion bioreactor culture (Example 2); type: cell-based, Chinese hamster; settings: 150 μM and 200 μM retinyl acetate, 1.6 mM ferric citrate, compared to control, data not shown
Method: Samples were taken near-daily for: VCD and viability (Vi-Cell, Beckman-Coulter), osmolality (Advanced Instrument Inc), pH, CO2, and O2 (RapidLab 1240 BGA, Siemens), and metabolite readings (Cedex BioHT, Roche). DeltaV was used to control and Finesse TruBio software was used to record and monitor cell bleed, permeate, and media pump rates. Cell samples were taken throughout the experiment and stored at −20° C. in 70% EtOH after treatment with Accumax (Innovative Cell Technologies) for later cell cycle analysis using propidium iodide stain with RNase (BD Biosciences) on a Guava easyCyte flow cytometer (EMD Millipore).

[3] = tested on: Chinese hamster ovary (CHO) DG44 cells expressing a recombinant monoclonal IgG1 antibody; assay: Deep well plate model of perfusion (small scale culture): viable cell density, viability, titer; type: cell-based; remark: listed apart in the source
[4] = tested on: Chinese hamster ovary (CHO) DG44 cells; assay: Cell cycle analysis of deep well culture (propidium iodide, flow cytometry); type: cell-based; settings: 400 μM retinyl acetate, 3.1 mM ferric citrate, cultivation for 7 days; control cells 62.6%
Method: Cell cycle analysis was performed on days 1 and 7 of deep well culture. Cells were grown in medium containing 3.1 mM ferric citrate and 400 μM retinyl acetate or control medium and fixed on days 1 and 7 by a wash in cold PBS before suspension in 70% ethanol. Cells were stored at −20° C. until analysis. 1e5 cells per sample were stained with propidium iodide with RNase (BD Biosciences) for DNA content and analyzed by flow cytometry on a Guava easyCyte flow cytometer (EMD Millipore).

[5] = tested on: CHO DG44 cells expressing a recombinant monoclonal IgG1 antibody; assay: High density perfusion culture in bioreactors, 350 μM ferric citrate (Example 3); type: cell-based, Chinese hamster
Method: A high density perfusion culture of CHO DG44 cells expressing a recombinant monoclonal IgG1 antibody was treated with low iron (Fe) and vitamin A (retinyl acetate) to assess the effect on cell proliferation, and the cell bleed. A bench-scale experiment was performed essentially as described above for Example 2. During the growth phase (d0-d10 post-inoculation) there was no cell bleed, allowing the viable cell density (VCD) to reach desired level. On day 8, ferric citrate (Sigma-Aldrich; CAS 3522-50-7) was added to the perfusion media at a concentration of 350 μM. Once optimal cell density was reached on day 10, cell bleed was initiated to maintain constant VCD (steady state). The calculation governing the cell bleed rate was based on maintaining the Incyte biomass capacitance probe value (Hamilton company) which corresponded to the target VCD.
On day 25 day, retinyl acetate (Sigma-Aldrich, CAS 127-47-9) was introduced to one of the bioreactors, with one bioreactor acting as control with no retinyl acetate. Retinyl acetate was dissolved in absolute ethanol and sterile-filtered with a 0.2 μm filter to make a sterile stock solution of 152 mM before addition to media bags for final concentrations of 100 μM retinyl acetate. Retinyl acetate was then added to the bioreactor on day 25. The bag of new treatment media was attached to the media inlet line of the bioreactors and in order to ensure an instantaneous achievement of target retinyl acetate concentration within the vessels (as opposed to the gradual increase which would occur via introduction through the perfusion medium), a bolus addition of 1.3 mL retinyl acetate stock solution was added directly to the treatment bioreactor via injection through a sterile addition line. Samples were taken and analyzed as explained for Example 2.

[6] = 100 μM retinyl acetate, 350 μM ferric citrate, days 25 to 29 (FIG. 7)

Compound: CC1=C(/C=C/C(C)=C/C=C/C(C)=C/CO)C(C)(C)CCC1 [retinol]
- cytotoxicity (CHO cultures; higher retinol concentrations (above 10 to 50 μM)): cytotoxic
- growth and protein synthesis (CHO cultures; retinol 10 to 50 μM): inhibitory effect on growth and protein synthesis

Compound: CC(=O)OC/C=C(C)/C=C/C=C(C)/C=C/C1=C(C)CCCC1(C)C [retinyl acetate]
- bleed flow rate ([1]; 50 μM or 100 μM retinyl acetate, 1.6 mM ferric citrate, days 15 to 20, compared to control (FIG. 5A)): reduced in a dose-dependent manner
- viability ([1]; 50 μM to 200 μM retinyl acetate, 1.6 mM ferric citrate (FIG. 4)): not affected
- decrease of cell bleed rate ([1]; 150 μM vitamin A): approximately 45%
- decrease of cell bleed rate ([1]; 200 μM vitamin A): roughly 70%
- viable cell density ([2]; 5 μM to 20 μM retinyl acetate, 3.1 mM ferric citrate (FIG. 1A)): reduced the viable cell density in a dose-dependent manner
- viable cell density ([2]; 40 μM to 100 μM retinyl acetate, 3.1 mM ferric citrate (FIG. 2A)): reduced the viable cell density in a dose-dependent manner
- cell proliferation ([2]; 60 μM to 400 μM retinyl acetate, 3.1 mM ferric citrate, small scale studies): inhibit cell proliferation
- growth / viable cell density ([2]; 200 μM and 400 μM retinyl acetate, 3.1 mM ferric citrate (FIG. 3A)): further inhibited growth resulting in a lower viable cell density
- viable cell density ([2]; 600 μM retinyl acetate, 3.1 mM ferric citrate (FIG. 3A)): sharply declined from about day 2
- effect on viable cell density ([2]; 200-400 μM retinyl acetate, 230 μM ferric citrate, data not shown): present, but less pronounced
- decrease in growth rate ([2]; low ferric citrate (230 μM) versus high ferric citrate (3.1 mM), same retinyl acetate level): less pronounced in low ferric citrate
- cell specific productivity (qp) ([2]; retinyl acetate with 3.1 mM ferric citrate, data not shown): unaffected
- viability ([2]; same retinyl acetate concentrations (200 μM), 3.1 mM ferric citrate (FIG. 8)): unaffected
- cell percentage in G0/G1 phase (CHO-DG44 cells): increase in cell percentage in G0/G1 phase
- SGR (specific growth rate) ([3]; 2 μM retinyl acetate, data not shown): no effect on SGR was observed
- specific growth rate ([3]; 350 μM ferric citrate and 200 μM retinyl acetate, data not shown): decrease in specific growth rate
- viability ([3]; Chinese hamster, 5 days, 200 μM): negative effect on viability after 5 days
- cells in the G0/G1 phase [4]: 86%
- cell bleed [5, 6]: markedly decreased
- specific growth rate [5, 6]: markedly decreased
- viability ([5]; 100 μM retinyl acetate, 350 μM ferric citrate, versus 350 μM ferric citrate alone (FIG. 6)): same high viability
- reduction of cell bleed rate ([5]; 100 μM vitamin A, 350 μM ferric citrate background media, over 5 days (FIG. 7A)): approximately 50%
